ChEMBL document CHEMBL2424625, “Synthesis and structure-activity relationships of novel indazolyl glucocorticoid receptor partial agonists” (Bioorg Med Chem Lett, 2013)
Calls of active or inactive are those of the source. The calls are words filed in the database; no cut-off is given here.

Molecular target: T1, Glucocorticoid receptor (Homo sapiens) (UniProt P04150)
T1 sequence (whole entry): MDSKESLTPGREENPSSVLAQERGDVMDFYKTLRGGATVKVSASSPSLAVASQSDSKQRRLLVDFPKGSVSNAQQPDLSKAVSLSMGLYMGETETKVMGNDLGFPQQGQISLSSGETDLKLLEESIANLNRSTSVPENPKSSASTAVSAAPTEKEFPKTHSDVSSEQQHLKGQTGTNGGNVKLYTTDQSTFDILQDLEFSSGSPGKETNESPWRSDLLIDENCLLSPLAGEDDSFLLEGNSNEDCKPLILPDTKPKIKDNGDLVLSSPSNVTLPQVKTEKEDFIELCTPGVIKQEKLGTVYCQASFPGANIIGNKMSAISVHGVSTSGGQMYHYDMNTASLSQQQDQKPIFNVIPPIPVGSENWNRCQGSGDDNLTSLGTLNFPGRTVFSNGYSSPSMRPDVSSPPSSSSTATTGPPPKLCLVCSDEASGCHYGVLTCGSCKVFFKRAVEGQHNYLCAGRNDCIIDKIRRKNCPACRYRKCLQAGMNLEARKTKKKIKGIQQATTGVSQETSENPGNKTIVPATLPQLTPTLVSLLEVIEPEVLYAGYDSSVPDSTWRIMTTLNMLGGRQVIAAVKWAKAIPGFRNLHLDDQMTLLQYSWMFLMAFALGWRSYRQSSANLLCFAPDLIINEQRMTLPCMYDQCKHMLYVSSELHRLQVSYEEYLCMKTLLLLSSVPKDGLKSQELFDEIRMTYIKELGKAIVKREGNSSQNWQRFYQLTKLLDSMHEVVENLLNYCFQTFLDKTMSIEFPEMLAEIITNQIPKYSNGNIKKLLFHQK
Experiment: Partial agonist activity at glucocorticoid receptor (unknown origin) by fluorescence assay

Activity	Structure (SMILES)
Active	CC(C)(CNS(=O)(=O)CC(F)(F)F)[C@@H](c1ccccc1)c1ccc2c(cnn2-c2ccc(F)cc2)c1
Active	CC(C)(C)NC(=O)NCC(C)(C)[C@@H](c1ccccc1)c1ccc2c(cnn2-c2ccc(F)cc2)c1
